Values quoted from earlier work in patent US20070010584A1, “Compositions and methods for orthostatic intolerance” (priority 2003, published 2007).
Read-outs that look alike come from different tables or passages of the source. Each block holds one molecule with its values, some of them ahead of it.

Experiments:
[1] = in vivo
[2] = system: patients with OI and orthostatic tachycardia; settings: in vivo
[3] = clonidine 0.1 mg PO, 13 patients with OI

time of peak NE levels (after ingestion of DOPS): about 5 hours
duration of increased plasma levels of DOPS and NE (after oral administration of DOPS): at least 12 hours
time of peak plasma levels of DOPS (after oral ingestion): about 3 hours
SMILES: N[C@H](C(=O)O)[C@H](O)c1ccc(O)c(O)c1 [DOPS, Threo-3-(3,4-dihydroxyphenyl)serine]

SMILES: Clc1cccc(Cl)c1N=C1NCCN1 [clonidine]
tolerability in OI patients (patients with OI; clonidine 0.1 mg PO): tolerate clonidine poorly
blood pressure (patients with OI; [3]): significantly decreased blood pressure
supine and standing heart rate (patients with OI; [3]): decreased both supine and standing heart rate

half-life [1]: 30 min
SMILES: COc1ccc(OC)c(C(O)CNC(=O)CN)c1 (stereo not drawn) [Midodrine]
supine and standing heart rate (patients with OI; midodrine 5-10 mg PO, 13 patients with OI): decreased both supine and standing heart rate

SMILES: CC(C)NCC(O)COc1cccc2ccccc12 (stereo not drawn) [Propranolol]
efficacy in OI and orthostatic tachycardia [2]: effective in a number of patients
